# Reference: the NIST ThermoML archive (doi:10.1021/je301301j)
# Numbers after ± are expanded uncertainties.
# Assay: xn = mol fraction of the nth substance listed
# Details: Liquid, Vibrating tube method
smiles,measurement,setting,value
C=CCCCC [hex-1-ene] + CCCCO,mass density,"313.15 K, 50000 kPa, x1 = 0.1001",811.1 ± 0.8 kg/m3
same,mass density,"313.15 K, 50000 kPa, x1 = 0.3999",768.7 ± 0.9 kg/m3
same,mass density,"313.15 K, 50000 kPa, x1 = 0.5018",756.5 ± 0.9 kg/m3
same,mass density,"313.15 K, 50000 kPa, x1 = 0.5997",744.7 ± 0.9 kg/m3
same,mass density,"313.15 K, 50000 kPa, x1 = 0.9",708.2 ± 1 kg/m3
same,mass density,"313.15 K, 50000 kPa, x1 = 1",699.9 ± 1 kg/m3
same,mass density,"313.15 K, 60000 kPa, x1 = 1",706.9 ± 1 kg/m3
same,mass density,"313.15 K, 70000 kPa, x1 = 1",713 ± 1.1 kg/m3
same,mass density,"333.15 K, 100 kPa, x1 = 0.1001",759.7 ± 0.7 kg/m3
same,mass density,"333.15 K, 100 kPa, x1 = 0.3999",711.1 ± 0.7 kg/m3
same,mass density,"333.15 K, 100 kPa, x1 = 0.5018",697.2 ± 0.7 kg/m3
same,mass density,"333.15 K, 100 kPa, x1 = 0.5997",683.7 ± 0.7 kg/m3
same,mass density,"333.15 K, 100 kPa, x1 = 0.9",642.8 ± 0.7 kg/m3
same,mass density,"333.15 K, 100 kPa, x1 = 1",634 ± 0.7 kg/m3
same,mass density,"333.15 K, 1000 kPa, x1 = 0.1001",760.6 ± 0.7 kg/m3
same,mass density,"333.15 K, 1000 kPa, x1 = 0.3999",712.2 ± 0.7 kg/m3
same,mass density,"333.15 K, 1000 kPa, x1 = 0.5018",698.3 ± 0.7 kg/m3
same,mass density,"333.15 K, 1000 kPa, x1 = 0.5997",684.9 ± 0.7 kg/m3
same,mass density,"333.15 K, 1000 kPa, x1 = 0.9",644.1 ± 0.7 kg/m3
same,mass density,"333.15 K, 1000 kPa, x1 = 1",635.4 ± 0.7 kg/m3
same,mass density,"333.15 K, 2000 kPa, x1 = 0.1001",761.6 ± 0.7 kg/m3
same,mass density,"333.15 K, 2000 kPa, x1 = 0.3999",713.4 ± 0.7 kg/m3
same,mass density,"333.15 K, 2000 kPa, x1 = 0.5018",699.6 ± 0.7 kg/m3
same,mass density,"333.15 K, 2000 kPa, x1 = 0.5997",686.3 ± 0.7 kg/m3
same,mass density,"333.15 K, 2000 kPa, x1 = 0.9",645.6 ± 0.7 kg/m3
same,mass density,"333.15 K, 2000 kPa, x1 = 1",636.9 ± 0.7 kg/m3
same,mass density,"333.15 K, 5000 kPa, x1 = 0.1001",764.5 ± 0.7 kg/m3
same,mass density,"333.15 K, 5000 kPa, x1 = 0.3999",716.8 ± 0.7 kg/m3
same,mass density,"333.15 K, 5000 kPa, x1 = 0.5018",703.1 ± 0.7 kg/m3
same,mass density,"333.15 K, 5000 kPa, x1 = 0.5997",690 ± 0.7 kg/m3
same,mass density,"333.15 K, 5000 kPa, x1 = 0.9",649.9 ± 0.7 kg/m3
same,mass density,"333.15 K, 5000 kPa, x1 = 1",641.3 ± 0.7 kg/m3
same,mass density,"333.15 K, 10000 kPa, x1 = 0.1001",768.9 ± 0.7 kg/m3
same,mass density,"333.15 K, 10000 kPa, x1 = 0.3999",722 ± 0.7 kg/m3
same,mass density,"333.15 K, 10000 kPa, x1 = 0.5018",708.6 ± 0.8 kg/m3
same,mass density,"333.15 K, 10000 kPa, x1 = 0.5997",695.7 ± 0.8 kg/m3
same,mass density,"333.15 K, 10000 kPa, x1 = 0.9",656.3 ± 0.8 kg/m3
same,mass density,"333.15 K, 10000 kPa, x1 = 1",647.8 ± 0.8 kg/m3
same,mass density,"333.15 K, 15000 kPa, x1 = 0.1001",773.1 ± 0.7 kg/m3
same,mass density,"333.15 K, 15000 kPa, x1 = 0.3999",727.1 ± 0.8 kg/m3
same,mass density,"333.15 K, 15000 kPa, x1 = 0.5018",713.8 ± 0.8 kg/m3
same,mass density,"333.15 K, 15000 kPa, x1 = 0.5997",701.1 ± 0.8 kg/m3
same,mass density,"333.15 K, 15000 kPa, x1 = 0.9",662.2 ± 0.8 kg/m3
same,mass density,"333.15 K, 15000 kPa, x1 = 1",653.9 ± 0.8 kg/m3
same,mass density,"333.15 K, 20000 kPa, x1 = 0.1001",777.2 ± 0.8 kg/m3
same,mass density,"333.15 K, 20000 kPa, x1 = 0.3999",731.6 ± 0.8 kg/m3
same,mass density,"333.15 K, 20000 kPa, x1 = 0.5018",718.7 ± 0.8 kg/m3
same,mass density,"333.15 K, 20000 kPa, x1 = 0.5997",706.1 ± 0.8 kg/m3
same,mass density,"333.15 K, 20000 kPa, x1 = 0.9",667.8 ± 0.8 kg/m3
same,mass density,"333.15 K, 20000 kPa, x1 = 1",659.5 ± 0.8 kg/m3
same,mass density,"333.15 K, 30000 kPa, x1 = 0.1001",784.7 ± 0.8 kg/m3
same,mass density,"333.15 K, 30000 kPa, x1 = 0.3999",740.3 ± 0.8 kg/m3
same,mass density,"333.15 K, 30000 kPa, x1 = 0.5018",728.5 ± 0.8 kg/m3
same,mass density,"333.15 K, 30000 kPa, x1 = 0.5997",715.4 ± 0.8 kg/m3
same,mass density,"333.15 K, 30000 kPa, x1 = 0.9",677.7 ± 0.9 kg/m3
same,mass density,"333.15 K, 30000 kPa, x1 = 1",669.5 ± 0.9 kg/m3
same,mass density,"333.15 K, 40000 kPa, x1 = 0.1001",791.6 ± 0.8 kg/m3
same,mass density,"333.15 K, 40000 kPa, x1 = 0.3999",748 ± 0.9 kg/m3
same,mass density,"333.15 K, 40000 kPa, x1 = 0.5018",736.5 ± 0.9 kg/m3
same,mass density,"333.15 K, 40000 kPa, x1 = 0.5997",723.5 ± 0.9 kg/m3
same,mass density,"333.15 K, 40000 kPa, x1 = 0.9",686.5 ± 0.9 kg/m3
same,mass density,"333.15 K, 40000 kPa, x1 = 1",678.4 ± 0.9 kg/m3
same,mass density,"333.15 K, 50000 kPa, x1 = 0.1001",798 ± 0.8 kg/m3
same,mass density,"333.15 K, 50000 kPa, x1 = 0.3999",755.2 ± 0.9 kg/m3
same,mass density,"333.15 K, 50000 kPa, x1 = 0.5018",743.8 ± 0.9 kg/m3
same,mass density,"333.15 K, 50000 kPa, x1 = 0.5997",731 ± 0.9 kg/m3
same,mass density,"333.15 K, 50000 kPa, x1 = 0.9",694.4 ± 1 kg/m3
same,mass density,"333.15 K, 50000 kPa, x1 = 1",686.3 ± 1 kg/m3
same,mass density,"333.15 K, 60000 kPa, x1 = 1",693.7 ± 1.1 kg/m3
same,mass density,"333.15 K, 70000 kPa, x1 = 1",700.5 ± 1.1 kg/m3
